Experimental data taken from patent US20240150330A1, “CHROMANS AND BENZOFURANS AS 5-HT1A AND TAAR1 AGONISTS” (Sunovion Pharmaceuticals Inc., priority 2021, published 2024).

Experiments:
human 5-HT1A receptor = biological target: T1, human 5-HT1A receptor (Homo sapiens, UniProt P08908); test: 5-HT1A Radioligand Binding Assay; details: 1 μM test compound; competition with 0.9 nM [3H]-8-OH-DPAT; membranes of 5-HT1A expressing CHO-K1 cells
T1 construct: expressed in transfected cells; host or cells: CHO-K1
T1 sequence (P08908 1-422): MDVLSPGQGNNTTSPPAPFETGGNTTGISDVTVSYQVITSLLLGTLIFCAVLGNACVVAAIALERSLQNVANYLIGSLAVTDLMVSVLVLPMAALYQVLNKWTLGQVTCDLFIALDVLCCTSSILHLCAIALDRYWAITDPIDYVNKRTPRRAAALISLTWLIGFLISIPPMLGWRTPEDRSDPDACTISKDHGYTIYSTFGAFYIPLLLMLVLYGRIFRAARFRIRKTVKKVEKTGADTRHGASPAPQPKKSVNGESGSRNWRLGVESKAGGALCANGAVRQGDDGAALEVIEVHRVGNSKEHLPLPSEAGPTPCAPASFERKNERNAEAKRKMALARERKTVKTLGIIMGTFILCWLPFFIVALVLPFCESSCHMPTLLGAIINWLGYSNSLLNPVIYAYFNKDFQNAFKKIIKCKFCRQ
Procedure: Cells expressing the human 5-HT1A receptor were grown to mid-log phase in complete culture medium and then scraped from the culture vessels in ice-cold Ca^2+- and Mg^2+-free Phosphate-buffered saline. The cells were then centrifuged for 10 minutes at 5,000×g and 4° C. and the pellets resuspended in buffer A (15 mM Tris-HCl pH 7.5; 2 mM MgCl2; 0.3 mM EDTA; 1 mM EGTA) and homogenized in a glass-glass homogenizer. The crude membrane fraction was collected by two consecutive centrifugation steps at 35,000×g and 4° C. for 30 minutes separated by a wash step with buffer A. The final membrane pellet was suspended in buffer B (75 mM Tris-HCl pH 7.5; 12.5 mM MgCl2; 0.3 mM EDTA; 1 mM EGTA; 250 mM sucrose) and flash-frozen in liquid nitrogen. Protein content was determined by the BCA method (Interchim, UP40840A).
Radioligand competition binding was performed in duplicate in the wells of a 96 well plate (Master Block, Greiner, 786201) containing binding buffer (50 mM Tris, 5 mM CaCl2, 0.1% ascorbic acid, 10 μg/ml saponin, pH7.4), membrane extracts prepared from the 5-HT1A expressing CHO-K1 cell line (7 μg protein/well), reference tracer (0.9 nM [^3H]-8-OH-DPAT) and test compound in a final volume of 0.1 ml. Nonspecific binding was determined by co-incubation with 200-fold excess of reference competitor (5-HT). The samples were incubated for 1 hour at 25° C., and then filtered over GF/B Unifilter plates (Perkin Elmer 6005177) presoaked in 0.5% PEI, using a Filtermate Harvester (Perkin Elmer, C96162). Filters were washed six times with 0.5 ml ice-cold buffer (50 mM Tris pH 7.4) and 50 μl of Microscint 20 (Packard) were added to each well. The plates were incubated 15 minutes on an orbital shaker and then counted with a TopCount NXT (Packard, C384V01) for 1 minute/well.
Compounds were tested at 1 and 10 μM concentrations, in duplicate: […]

TAAR1 receptor = biological target: T2, TAAR1 receptor (UniProt Q96RJ0); test: TAAR1 Agonist cAMP Assay; assay type: cell-based, human or mouse; details: CHO-K1 cells expressing TAAR1; cAMP HTRF; 30 minutes at room temperature
T2 sequence (Q96RJ0 1-339): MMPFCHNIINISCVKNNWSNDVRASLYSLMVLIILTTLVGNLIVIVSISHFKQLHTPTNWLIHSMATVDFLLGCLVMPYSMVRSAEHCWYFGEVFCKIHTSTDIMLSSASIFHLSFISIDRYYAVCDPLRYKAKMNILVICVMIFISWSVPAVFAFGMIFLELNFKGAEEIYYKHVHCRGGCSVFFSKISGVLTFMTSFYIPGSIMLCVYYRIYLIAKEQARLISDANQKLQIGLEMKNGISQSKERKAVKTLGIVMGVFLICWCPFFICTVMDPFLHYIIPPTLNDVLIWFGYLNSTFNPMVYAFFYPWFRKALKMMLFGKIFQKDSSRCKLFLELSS
Procedure: CHO-K1 cells expressing the human TAAR1 receptor (Accession number NP_612200.1) or mouse TAAR1 receptor (Accession number NP_444435.1) were grown in media (Advanced DMEM supplemented with 1% dialyzed fetal bovine serum) without antibiotics. The cells were detached by gentle flushing with phosphate buffered saline containing 5 mM EDTA, recovered by centrifugation and resuspended in assay buffer (Krebs-Ringers Henseleit buffer: 5 mM KCl, 1.25 mM MgSO4, 124 mM NaCl, 25 mM HEPES, 13.3 mM Glucose, 1.25 mM KH2PO4, 1.45 mM CaCl2, 0.5 g/L BSA, supplemented with 1 mM isobutylmethylxanthine). Testing was performed in 384-well plates. 5 μl of cells (3000 cells) were mixed with 5 μl of the test compound diluted in assay buffer and then incubated for 30 minutes at room temperature. cAMP levels were determined using the Cisbio cAMP Gs dynamic HTRF kit (Cisbio, Bedford, MA). The results of the testing are shown in Table 3, with EC50 ranges designated as follows: • A=0.1 μM to 1 μM • B=0.01 μM to <0.1 μM • C=0.001 μM to <0.01 μM • D=0.0001 μM to <0.001 μM

## NC[C@H]1CCOc2c(-c3ccncc3)cccc21 [Compound 2, (S)-(8-(pyridin-4-yl)chroman-4-yl)methanamine]
Human 5-HT1A receptor
  inhibition at 1 µM: > 90%

## CNC[C@H]1CCOc2c(-c3ccncc3)cccc21 [Compound 4, (S)—N-methyl-1-(8-(pyridin-4-yl)chroman-4-yl)methanamine]
TAAR1 receptor
  EC50: 100 to 1000 nM
Human 5-HT1A receptor
  inhibition at 1 µM: > 90%

## NC[C@@H]1CCOc2c(-c3ccncc3)cccc21 [Compound 1, (R)-(8-(pyridin-4-yl)chroman-4-yl)methanamine]
Human 5-HT1A receptor
  inhibition at 1 µM: > 50%

## CNC[C@@H]1CCOc2c(-c3ccncc3)cccc21 [Compound 3, (R)—N-methyl-1-(8-(pyridin-4-yl)chroman-4-yl)methanamine]
TAAR1 receptor
  EC50: 10 to 100 nM
Human 5-HT1A receptor
  inhibition at 1 µM: > 50%
